Results: PMC9841531, “Indole Derivatives as New Structural Class of Potent and Antiproliferative Inhibitors of Monocarboxylate Transporter 1 (MCT1; SLC16A1)” (Journal of Medicinal Chemistry, 2022)

Assays:
MCF-7 cancer cells = test: MTT-based cell viability assay, MCF-7; conditions: Homo sapiens, MCF7, 72 h, read-out: MCF-7 cancer cell toxicity GI50 ± SEM
Source text: MCT1-expressing cells have an extraordinary energy demand and rely on pyruvate metabolism, through either lactate conversion or pyruvate consumption. Inhibition of MCT1 blocks lactate and pyruvate influx into cancer cells, which prevents their processing in the TCA cycle. Over time, the viability of cells exposed to an MCT1 inhibitor is impaired due to pyruvate deprivation, which is compensated by upregulating glucose metabolism—leading to an overconsumption of glucose. To confirm the antiproliferative nature of the indole derivatives, we investigated the compounds toward the MCT1-expressing cell lines A-549[14],[15] and MCF-7.[16] Cancer cell viability was assessed via a 3-(4,5-dimethylthiazol-2-yl)-2,5-diphenyltetrazolium bromide (MTT) assay, as reported earlier.[43]
To determine the growth inhibitory potential of compounds 17–32, […] of each compound either at concentrations between 1 and 100 μM (A-549 or MCF-7) or at 10 and 50 μM (NIH/3T3) was pipetted into colorless flat-bottom 96-well microplates. Thereafter, 180 μL of a cell suspension (5000 cells/well) of either A-549, MCF-7, or NIH/3T3 cells was added and subsequently kept for 72 h at 37 °C under a 5% CO2-humidified atmosphere. The cell viability as well as the GI50 values were determined as described above.[43]

[1] = test system: MCT1-expressing A-549 cells; test: MTT-based efficacy assay, 33 in combination with test compound, A-549; format: cell-based; conditions: for factor of sensitization of A-549 cells against 33: shift of concentration-effect curve of 33; for Increase Susceptibility toward 33 (Factor): supplement csv
Method: MCT1 inhibition anticipates challenging cancer cell energy supply and, thus, increases the efficacy of anticancer agents.
For this purpose, 10 μL of compounds 24 or 30 (50 nM, 100 nM, or 500 nM) was transferred onto a colorless flat-bottom 96-well microplate and complemented with 180 μL of a cell suspension containing either approximately 5,000 A-549 cells. A dilution series of compound 33 at concentrations between 50 nM and 50 μM was generated, and 10 μL of each concentration was transferred onto the plate. The observed effects of compounds 24 and 30 were compared to the effect of compound 33 alone on A-549. The plates were incubated for 72 h at 37 °C and a 5% CO2-humidified atmosphere, before subsequent processing with the regular MTT assay as described above.[43]

A-549 cells = test: PI/Annexin V-FITC apoptosis assay; format: cell-based; conditions: 5 μM
Source text: As compound 24 increased the sub-G1 cell cycle fraction of A-549 cells, we investigated its capability to induce apoptosis in a PI/Annexin V-FITC staining assay, as reported earlier.[44],[46]−[51] In short, cells that were stained with PI only were considered necrotic cells (Q1), while cells stained with both PI and Annexin V were late apoptotic (Q2), and cells stained with Annexin V only were early apoptotic (Q4). Cells negative on both PI and Annexin V were considered living cells (Q3).
A PI/Annexin V-FITC double staining method was used to carry out a flow cytometry-based apoptosis assay, as reported earlier.[44],[46]−[51] For this purpose, a PI/Annexin V-FITC apoptosis detection kit (BD Biosciences, Franklin Lakes, NJ) was used following the manufacturer’s instructions. A-549 cells were seeded onto 6-well plates with a density of 500,000 cells/well and incubated for 24 h at 37 °C under a 5% CO2-humidified atmosphere. Subsequently, the cells were exposed to compound 24 (5 μM) followed by a further incubation period of 24 h at 37 °C under a 5% CO2-humidified atmosphere. The cells were trypsinized, washed with PBS, and resuspended in 1x binding buffer (1,000,000 cells/mL). One hundred microliters of test solution containing 100,000 cells treated with a mixture of PI (5 μL) and Annexin V-FTIC (5 μL) was incubated in the dark for 10–15 min at room temperature. Four hundred microliters of binding buffer was added, and the cells were resuspended again just before the flow cytometry analysis by using flow cytometry.

ABCB1 [2] = biological target: T1, ABCB1 (Homo sapiens, UniProt P08183); test: daunorubicin assay, ABCB1-expressing A2780/ADR cells; format: cell-based; conditions: A2780/ADR cells; read-out: ABCB1 daunorubicin IC50 ± SEM
[3] = test system: ABCB1-expressing A2780/ADR cells; test: MTT-based efficacy (MDR-reversal) assay, 33 in combination with test compound, A2780/ADR; format: cell-based; conditions: for sensitization of ABCB1-expressing A2780/ADR cells against 33: 5 μM; for EC50: from resistance factors of 33 (A2780/ADR vs A2780) against compound concentration, read-out: half-maximal reversal concentration (EC50)
Method: This sensitization is indicated by a shift of the concentration-effect curve of compound 33 from the right (=high concentrations of 33 needed to induce A2780/ADR cell death) to the left (=lower concentrations of 33 needed to induce A2780/ADR cell death). The concentration-effect curve of compound 33 in combination with 5 μM of either compound 24 or 30 resembles the concentration-effect curve of the sensitive cell line A2780. […] Thus, their potentiating effect with respect to the antiproliferative agent 33 against ABCB1-expressing A2780/ADR cells is due to the inhibition of ABCB1. Therefore, compounds 24 and 30 were dually effective against MCT1- and ABCB1-expressing cells (Table 5).
An MDR-reversal assay[2],[55]−[59] was used to investigate the ability to reverse ABCB1-mediated MDR in A2780/ADR cells toward the cytotoxic ABCB1 substrate 33. […] A dilution series of 33 at concentrations between 0.1 μM and 100 μM was generated, and 20 μL of each concentration was transferred onto the plates (final concentration: 0.01–10 μM). The plates were incubated for 72 h at 37 °C and a 5% CO2-humidified atmosphere, before subsequent processing with the regular MTT assay as described above. The observed effects of compounds 24 and 30 were compared to the effect of 33 alone on A2780/ADR cells as well as its sensitive counterpart A2780 (∼10,000 cells/well).

ABCC1 = ABCC1 (Homo sapiens, UniProt P33527); test: daunorubicin assay, ABCC1-expressing H69AR cells; conditions: screening at 10 μM, inhibitor if 20% (+SEM) reached
Source text: (§1) To provide a detailed picture of the pharmacological profile of the indole derivatives, we investigated their modulatory nature on the most prominent ABC transporters ABCB1 (P-glycoprotein, P-gp), ABCC1, (multidrug resistance-associated protein 1, MRP1), and ABCG2 (breast cancer resistance protein, BCRP). Here, we conducted calcein AM (ABCB1),[2],[52]−[59] daunorubicin (ABCC1),[52],[58]−[60] and pheophorbide A (ABCG2)[2],[52]−[60] assays using ABCB1-expressing A2780/ADR, ABCC1-expressing H69AR, and ABCG2-expressing MDCK II BCRP cells, respectively.
(§2) The calcein AM (ABCB1),[2],[52]−[59] daunorubicin (ABCB1[52],[60] and ABCC1[52],[58]−[60]), and pheophorbide A (ABCG2)[2],[52]−[60] assays were conducted as reported earlier. […] The data was processed using GraphPad Prism version 8.4.0, and IC50 values were determined, applying three- or four-parameter logistic equations, whatever was statistically preferred.

ABCB1 [4] = biological target: T1, ABCB1; test: calcein AM assay, ABCB1-expressing A2780/ADR cells; conditions: for IC50: read-out: ABCB1 calcein AM IC50 ± SEM, A2780/ADR cells, 22, 23 constrained to reference inhibitor 34; for ABCB1 inhibition: screening at 10 μM, inhibitor if 20% (+SEM) reached
Source text: as §1, §2

T1 sequence (P08183 whole entry): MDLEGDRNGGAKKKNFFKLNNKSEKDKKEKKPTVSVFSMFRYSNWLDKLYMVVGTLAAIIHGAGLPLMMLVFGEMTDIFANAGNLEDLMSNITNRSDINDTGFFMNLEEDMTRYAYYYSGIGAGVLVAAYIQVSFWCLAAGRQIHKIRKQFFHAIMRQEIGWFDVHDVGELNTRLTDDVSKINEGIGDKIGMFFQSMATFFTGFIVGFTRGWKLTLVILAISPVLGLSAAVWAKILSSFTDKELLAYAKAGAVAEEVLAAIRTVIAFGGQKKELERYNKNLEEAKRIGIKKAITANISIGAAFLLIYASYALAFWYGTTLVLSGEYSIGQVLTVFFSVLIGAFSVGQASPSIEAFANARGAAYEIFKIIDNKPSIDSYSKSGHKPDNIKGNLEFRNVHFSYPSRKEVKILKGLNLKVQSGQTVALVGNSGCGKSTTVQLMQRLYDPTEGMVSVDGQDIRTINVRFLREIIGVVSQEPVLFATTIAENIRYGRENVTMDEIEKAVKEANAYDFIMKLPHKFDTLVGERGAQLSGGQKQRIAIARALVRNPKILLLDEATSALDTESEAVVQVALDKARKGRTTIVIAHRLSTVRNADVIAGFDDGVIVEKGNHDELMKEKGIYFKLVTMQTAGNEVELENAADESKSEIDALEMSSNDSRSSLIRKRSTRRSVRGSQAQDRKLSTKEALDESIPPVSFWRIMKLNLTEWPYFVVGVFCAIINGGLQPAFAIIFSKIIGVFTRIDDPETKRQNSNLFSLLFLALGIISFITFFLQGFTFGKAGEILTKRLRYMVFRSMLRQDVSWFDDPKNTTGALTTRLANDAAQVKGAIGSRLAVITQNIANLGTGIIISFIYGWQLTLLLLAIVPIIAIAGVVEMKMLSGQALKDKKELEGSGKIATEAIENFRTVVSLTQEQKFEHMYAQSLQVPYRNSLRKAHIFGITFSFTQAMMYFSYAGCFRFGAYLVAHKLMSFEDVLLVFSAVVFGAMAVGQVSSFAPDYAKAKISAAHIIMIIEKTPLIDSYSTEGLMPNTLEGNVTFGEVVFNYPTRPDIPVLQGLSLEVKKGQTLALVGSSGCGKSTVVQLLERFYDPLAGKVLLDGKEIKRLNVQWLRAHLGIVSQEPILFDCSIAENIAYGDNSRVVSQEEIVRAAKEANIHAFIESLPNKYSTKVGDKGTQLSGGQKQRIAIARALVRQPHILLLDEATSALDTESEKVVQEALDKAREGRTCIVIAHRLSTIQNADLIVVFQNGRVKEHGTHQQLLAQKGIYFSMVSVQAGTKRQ
Sequence of ABCC1 (P33527 whole entry): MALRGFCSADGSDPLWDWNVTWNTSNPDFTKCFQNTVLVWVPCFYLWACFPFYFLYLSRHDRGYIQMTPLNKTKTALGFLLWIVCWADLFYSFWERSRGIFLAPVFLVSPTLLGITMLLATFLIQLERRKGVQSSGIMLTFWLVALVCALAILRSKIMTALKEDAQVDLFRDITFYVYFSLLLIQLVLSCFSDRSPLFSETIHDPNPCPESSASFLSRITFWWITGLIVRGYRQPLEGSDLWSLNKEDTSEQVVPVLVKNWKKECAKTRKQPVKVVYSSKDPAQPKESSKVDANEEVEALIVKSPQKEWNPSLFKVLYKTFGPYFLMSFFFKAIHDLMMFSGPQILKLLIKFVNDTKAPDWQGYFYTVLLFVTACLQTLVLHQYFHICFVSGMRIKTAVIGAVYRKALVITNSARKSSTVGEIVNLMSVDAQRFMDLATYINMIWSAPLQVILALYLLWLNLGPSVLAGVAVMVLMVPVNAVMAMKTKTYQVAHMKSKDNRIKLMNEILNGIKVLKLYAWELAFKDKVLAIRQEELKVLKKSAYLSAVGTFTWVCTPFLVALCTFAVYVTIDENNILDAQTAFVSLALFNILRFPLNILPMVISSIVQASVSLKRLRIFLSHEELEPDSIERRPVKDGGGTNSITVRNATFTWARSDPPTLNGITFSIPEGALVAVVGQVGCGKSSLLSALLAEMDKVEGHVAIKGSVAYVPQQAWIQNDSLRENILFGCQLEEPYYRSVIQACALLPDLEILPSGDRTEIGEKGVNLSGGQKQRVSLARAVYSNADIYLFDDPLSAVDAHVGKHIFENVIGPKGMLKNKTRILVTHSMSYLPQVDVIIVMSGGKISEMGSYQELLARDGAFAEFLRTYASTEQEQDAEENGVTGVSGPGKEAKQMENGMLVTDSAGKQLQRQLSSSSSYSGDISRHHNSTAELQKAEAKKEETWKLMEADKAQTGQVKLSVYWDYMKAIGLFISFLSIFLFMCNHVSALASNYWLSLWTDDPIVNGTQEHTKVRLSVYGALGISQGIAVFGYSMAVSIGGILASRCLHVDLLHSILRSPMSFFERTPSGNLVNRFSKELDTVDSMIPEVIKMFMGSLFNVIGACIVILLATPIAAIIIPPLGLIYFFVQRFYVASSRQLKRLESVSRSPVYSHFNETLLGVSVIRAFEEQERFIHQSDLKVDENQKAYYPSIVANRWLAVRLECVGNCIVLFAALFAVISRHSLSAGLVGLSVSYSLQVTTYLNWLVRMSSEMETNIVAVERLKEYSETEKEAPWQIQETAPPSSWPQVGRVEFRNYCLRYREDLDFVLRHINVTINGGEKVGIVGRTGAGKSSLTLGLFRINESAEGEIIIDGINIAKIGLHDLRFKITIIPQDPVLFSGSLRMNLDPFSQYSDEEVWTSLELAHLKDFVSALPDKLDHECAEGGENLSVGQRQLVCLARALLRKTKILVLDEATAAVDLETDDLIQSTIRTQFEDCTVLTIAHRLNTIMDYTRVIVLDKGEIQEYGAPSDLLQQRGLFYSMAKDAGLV

Compound	GI50 (MCF-7 cancer cells) [µM]	factor of sensitization of A-549 cells against 33 [1]	Increase Susceptibility toward 33 (Factor) [1]	factor of increase of total apoptotic cells vs untreated (A-549 cells)	Q1 necrotic cells (PI only) (A-549 cells; 24 h) [%]	Q2 late apoptotic cells (PI and Annexin V) (A-549 cells; 24 h) [%]	Q3 living cells (A-549 cells; 24 h) [%]	Q4 early apoptotic cells (Annexin V only) (A-549 cells; 24 h) [%]	percentage of total apoptotic cells (A-549 cells; 24 h, untreated 0.51%) [%]	IC50 (ABCB1 [2]) [nM]	sensitization of ABCB1-expressing A2780/ADR cells against 33 [3]	EC50 [3] [nM]	ABCC1 inhibition (ABCC1)	IC50 (ABCB1 [4]) [nM]	ABCB1 inhibition (ABCB1 [4])
COC(=O)/C(C#N)=C/c1cn(CC(=O)Nc2ccc(OC)cc2)c2ccccc12 [Compound 24, Methyl-2-cyano-3-(1-(2-((4-methoxyphenyl)amino)-2-oxoethyl)-1H-indol-3-yl) Acrylate]	15.1 ± 0.4	2.5	2.5	13	10.6	5.08	82.7	1.60	6.68	1490 ± 50	completely sensitized	793 ± 39	X (Compounds were considered as inhibitors if they reached 20% (+SEM) inhibition compared to the reference inhibitors 33–35; X = fulfilled)	983 ± 135	X (Compounds were considered as inhibitors if they reached 20% (+SEM) inhibition compared to the reference inhibitors 33–35; X = fulfilled)
COC(=O)/C(C#N)=C/c1cn(CC(=O)Nc2ccc(C)cn2)c2ccccc12 [Compound 30, Methyl-2-cyano-3-(1-(2-((5-methylpyridin-2-yl)amino)-2-oxoethyl)-1H-indol-3-yl) Acrylate]	9.12 ± 0.22	2.6	2.6	–	–	–	–	–	–	2770 ± 20	completely sensitized	1220 ± 10	X (Compounds were considered as inhibitors if they reached 20% (+SEM) inhibition compared to the reference inhibitors 33–35; X = fulfilled)	1510 ± 80	X (Compounds were considered as inhibitors if they reached 20% (+SEM) inhibition compared to the reference inhibitors 33–35; X = fulfilled)
